Test results as given in patent publication US8372967B2, “Compounds and methods for modulating expression of GCCR” (Isis Pharmaceuticals, Inc., priority 2006, dated 2013).
Strand notation (5' to 3'): a small letter for the sugar, then the base; units joined by * are phosphorothioate-linked, units joined directly phosphodiester-linked; [ ] holds rarer units or linkages, { } end groups; capitals alone tell only the bases. e = 2'-O-(2-methoxyethyl) (MOE); [5mC] = 5-methylcytosine; d = 2'-deoxy (DNA)

What was measured:
[1] = test system: GCGR mRNA; test: GCGR mRNA levels in liver, C57/BL6 mice, single i.p. dose (Tables 35-41); format: in vivo, mouse
Description: Prior to quantitative PCR analysis, primer-probe sets specific to the target gene being measured were evaluated for their ability to be “multiplexed” with a GAPDH amplification reaction. After isolation the RNA is subjected to sequential reverse transcriptase (RT) reaction and real-time PCR, both of which are performed in the same well. RT and PCR reagents were obtained from Invitrogen Life Technologies (Carlsbad, Calif.). […] The RT reaction was carried out by incubation for 30 minutes at 48° C. Following a 10 minute incubation at 95° C. to activate the PLATIN 9M® Taq, 40 cycles of a two-step PCR protocol were carried out: 95° C. for 15 seconds (denaturation) followed by 60° C. for 1.5 minutes (annealing/extension).
170 μL of RiboGreen® working reagent (RiboGreen® reagent diluted 1:350 in 10 mM Tris-HCl, 1 mM EDTA, pH 7.5) was pipetted into a 96-well plate containing 30 μL purified cellular RNA. The plate was read in a CytoFluor® 4000 (PE Applied Biosystems) with excitation at 485 nm and emission at 530 nm.
(§1) Eight-week old male C57/BL6 mice (Jackson Laboratory, Bar Harbor, Me.) were administered a single dose of GCGR oligonucleotide by intraperitoneal injection at a concentration of […]. Each dose group consisted of four animals. Shown in Table 31 are the sequences, motifs and conjugates of the GCGR antisense compounds used in this study. Bolded residues indicate 2′-O-methoxyethyl (2′-MOE) moieties. All compounds comprise phosphorothioate internucleoside linkages throughout and each cytosine is replaced with 5-methylcytosine. ISIS 386626, ISIS 386627 and ISIS 386628 further comprise a C16 conjugate group attached to the 2′-O position of the sugar via a diamide linkage (2′-OCH2C(═O)N(H)(CH2)4N(H)C(═O)—(CH2)15CH3). GCGR antisense compounds target published GCGR sequences, including Genbank® Accession No. BC031885.1 (SEQ ID NO: 7).
(§2) Mice were sacrificed 48 hours following injection to determine serum transaminase levels (Table 32); liver, white adipose tissue (WAT), spleen and kidney weight (Table 33); cholesterol, triglyceride and glucose levels (Table 34); GCGR mRNA levels (Tables 35-41); and full-length and total oligonucleotide concentration in liver and kidney (Table 42). Endpoints were assessed using methods described herein and well known to those of ordinary skill in the art. Data is included from a pre-treatment bleed (Pre-Bleed) and post-treatment bleed (Post-Bleed).
To determine whether the phenotypic changes shown above correlated with a decrease in GCGR mRNA, treated animals were evaluated for levels of target mRNA in liver by real time PCR according to methods described herein. Tables 35 to 41 show results from direct comparisons of the antisense compounds targeting GCGR nucleic acid for their effect on target expression. Results are expressed as percent of saline control.

[2] = ALT & AST levels and toxic effects, GCGR study (Table 32); format: in vivo, mouse; conditions: C57/BL6 mice, pre-treatment bleed
Description: as §1, §2

[3] = Organ weights: liver, WAT, spleen, kidney, GCGR study (Table 33); format: in vivo, mouse; conditions: 48 h
Description: as §1, §2

[4] = Triglyceride, cholesterol and glucose levels, pre-bleed and post-bleed, GCGR study (Table 34); format: in vivo, mouse; design: Triglyceride (TRIG) Pre-Bleed / Triglyceride (TRIG) Post-Bleed / Cholesterol (CHOL) Pre-Bleed / Cholesterol (CHOL) Post-Bleed / Glucose Pre-Bleed / Glucose Post-Bleed: unit not given here
Description: as §1, §2

[5] = test system: mouse SGLT2 mRNA; test: Mouse SGLT2 mRNA in kidney, additional 1-10-1 and 2-8-2 MOE gapmers (Table 68); format: in vivo; conditions: Balb/c mouse kidney
Description: 1-10-1 and 2-8-2 MOE gapmer short antisense compounds were designed to target different regions of the mouse SGLT2 RNA but have complementarity across species. […] All cytidine residues are 5-methylcytidines.
The short antisense compounds were analyzed for their effect on mouse SGLT2 mRNA levels in vivo. Data was taken from three experiments in which male 6-week old Balb/c mice were dosed twice per week for three weeks with 0.5, 0.1, or 0.02 umol/kg of either a 1-10-1 or 2-8-2 MOE gapmer given by intraperitoneal injection. Mice were sacrificed 48 hours following last administration and evaluated for SGLT2 levels in kidney. Target levels were determined by RT, real-time PCR as described by other examples herein. PCR results were normalized to an internal ISIS control.

[6] = test system: SGLT2 mRNA; test: SGLT2 mRNA in kidney of Balb/c mice, twenty 1-10-1 MOE gapmers, PPS 534 and PPS 553 (Table 74); format: in vivo, mouse; conditions: i.p. 350 nmol/kg twice per week for two weeks
Description: Twenty 1-10-1 MOE gapmers that are complementary to human/monkey/mouse/rat SGLT2 were designed, synthesized and tested in vivo for suppression of SGLT2 mRNA levels in kidney. Data are averages from two experiments in which male 6-week old Balb/c mice were administered intraperitoneal injections of 350 nmol/kg of oligonucleotide, twice per week, over a period of two weeks (a total of four injections). Mice were sacrificed 48 hours following the last administration and evaluated for SGLT2 mRNA levels in kidney. SGLT2 mRNA levels were determined by quantitative real-time PCR analysis according to standard procedures, using two different PCR primer probe sets, primer probe set (PPS) 534 and PPS 553. SGLT2 mRNA levels were normalized to cyclophilin mRNA levels, which were also measured by quantitative real-time PCR.

[7] = 6.25 mg/kg group, pre-treatment bleed
[8] = 6.25 mg/kg single i.p., post-treatment bleed
[9] = 12.5 mg/kg group, pre-treatment bleed
[10] = 12.5 mg/kg single i.p., post-treatment bleed
[11] = 25 mg/kg group, pre-treatment bleed
[12] = 25 mg/kg single i.p., post-treatment bleed
[13] = 50 mg/kg group, pre-treatment bleed
[14] = 50 mg/kg single i.p., post-treatment bleed
[15] = primer probe set 534, normalized to cyclophilin
[16] = primer probe set 553, normalized to cyclophilin

## 386628 (antisense TGTCTTGCTGCTTT; chemistry not fully specified) [compound 386628]
[1]; 6.25 mg/kg, Table 38 comparison ISIS 148364 & ISIS 386628
  GCGR mRNA levels: 77% of saline control
[1]; 6.25 mg/kg, Table 41 comparison ISIS 386628 & ISIS 386594
  GCGR mRNA levels: 97% of saline control
[1]; 12.5 mg/kg, Table 38 comparison ISIS 148364 & ISIS 386628
  GCGR mRNA levels: 53% of saline control
[1]; 12.5 mg/kg, Table 41 comparison ISIS 386628 & ISIS 386594
  GCGR mRNA levels: 38% of saline control
[1]; 25 mg/kg, Table 38 comparison ISIS 148364 & ISIS 386628
  GCGR mRNA levels: 18% of saline control
[1]; 25 mg/kg, Table 41 comparison ISIS 386628 & ISIS 386594
  GCGR mRNA levels: 13% of saline control
[1]; 50 mg/kg, Table 38 comparison ISIS 148364 & ISIS 386628
  GCGR mRNA levels: 2% of saline control
[1]; 50 mg/kg, Table 41 comparison ISIS 386628 & ISIS 386594
  GCGR mRNA levels: 4% of saline control
[2]; dose group 6.25 mg/kg
  ALT Pre-Bleed: 22 IU/L
  AST Pre-Bleed: 40 IU/L
[2]; dose group 12.5 mg/kg
  ALT Pre-Bleed: 28 IU/L
  AST Pre-Bleed: 42 IU/L
[2]; dose group 25 mg/kg
  ALT Pre-Bleed: 24 IU/L
  AST Pre-Bleed: 40 IU/L
[2]; dose group 50 mg/kg
  ALT Pre-Bleed: 28 IU/L
  AST Pre-Bleed: 44 IU/L
[3]; 6.25 mg/kg single i.p.
  Organ Weights: Kidney: 102 % saline control
  Organ Weights: Liver: 98 % saline control
  Organ Weights: Spleen: 151 % saline control
  Organ Weights: WAT: 106 % saline control
[3]; 12.5 mg/kg single i.p.
  Organ Weights: Kidney: 99 % saline control
  Organ Weights: Liver: 101 % saline control
  Organ Weights: Spleen: 114 % saline control
  Organ Weights: WAT: 111 % saline control
[3]; 25 mg/kg single i.p.
  Organ Weights: Kidney: 109 % saline control
  Organ Weights: Liver: 102 % saline control
  Organ Weights: Spleen: 113 % saline control
  Organ Weights: WAT: 97 % saline control
[3]; 50 mg/kg single i.p.
  Organ Weights: Kidney: 99 % saline control
  Organ Weights: Liver: 104 % saline control
  Organ Weights: Spleen: 126 % saline control
  Organ Weights: WAT: 100 % saline control
[4]; [7]
  Cholesterol (CHOL) Pre-Bleed: 83
  Triglyceride (TRIG) Pre-Bleed: 117
[4]; [8]
  Cholesterol (CHOL) Post-Bleed: 85
  Triglyceride (TRIG) Post-Bleed: 121
[4]; [9]
  Cholesterol (CHOL) Pre-Bleed: 90
  Triglyceride (TRIG) Pre-Bleed: 90
[4]; [10]
  Cholesterol (CHOL) Post-Bleed: 94
  Glucose Post-Bleed: 240
  Triglyceride (TRIG) Post-Bleed: 123
[4]; [11]
  Cholesterol (CHOL) Pre-Bleed: 84
  Glucose Pre-Bleed: 210
  Triglyceride (TRIG) Pre-Bleed: 102
[4]; [12]
  Cholesterol (CHOL) Post-Bleed: 85
  Triglyceride (TRIG) Post-Bleed: 129
[4]; [13]
  Cholesterol (CHOL) Pre-Bleed: 88
  Triglyceride (TRIG) Pre-Bleed: 102
[4]; [14]
  Cholesterol (CHOL) Post-Bleed: 95
  Triglyceride (TRIG) Post-Bleed: 98

## ISIS 388627 (eG*e[5mC]*dA*d[5mC]*dA*d[5mC]*dA*dG*d[5mC]*dT*eG*e[5mC])
[5]; 0.02 umol/kg i.p. twice per week for three weeks
  % change in SGLT2 expression relative to saline: −38%
[5]; 0.1 umol/kg i.p. twice per week for three weeks
  % change in SGLT2 expression relative to saline: −50%
[5]; 0.5 umol/kg i.p. twice per week for three weeks
  % change in SGLT2 expression relative to saline: −65%

## ISIS 386626: GCGR short antisense compound with C16 conjugate group at 2′-O via diamide linkage (GCTTCTCCATCATA; chemistry not fully specified)
[1]; single i.p. dose 6.25, 12.5, 25 or 50 mg
  GCGR mRNA expression: greatest decrease in target mRNA
[4]; C57/BL6 mice, 48 hours after single i.p. dose
  Glucose levels (post-bleed): decreased in a dose-dependent manner

## 386626 (antisense GCTTCTCCATCATA; chemistry not fully specified) [compound 386626]
[1]; 6.25 mg/kg, Table 35 comparison ISIS 148364 & ISIS 386626
  GCGR mRNA levels: 7% of saline control
[1]; 12.5 mg/kg, Table 35 comparison ISIS 148364 & ISIS 386626
  GCGR mRNA levels: 3% of saline control
[1]; 25 mg/kg, Table 35 comparison ISIS 148364 & ISIS 386626
  GCGR mRNA levels: 8% of saline control
[1]; 50 mg/kg, Table 35 comparison ISIS 148364 & ISIS 386626
  GCGR mRNA levels: 0% of saline control
[2]; dose group 6.25 mg/kg
  ALT Pre-Bleed: 26 IU/L
  AST Pre-Bleed: 46 IU/L
[2]; dose group 12.5 mg/kg
  ALT Pre-Bleed: 28 IU/L
  AST Pre-Bleed: 44 IU/L
[2]; dose group 25 mg/kg
  ALT Pre-Bleed: 30 IU/L
  AST Pre-Bleed: 44 IU/L
[2]; dose group 50 mg/kg
  ALT Pre-Bleed: 28 IU/L
  AST Pre-Bleed: 48 IU/L
[3]; 6.25 mg/kg single i.p.
  Organ Weights: Kidney: 100 % saline control
  Organ Weights: Liver: 100 % saline control
  Organ Weights: Spleen: 95 % saline control
  Organ Weights: WAT: 90 % saline control
[3]; 12.5 mg/kg single i.p.
  Organ Weights: Kidney: 97 % saline control
  Organ Weights: Liver: 96 % saline control
  Organ Weights: Spleen: 114 % saline control
  Organ Weights: WAT: 73 % saline control
[3]; 25 mg/kg single i.p.
  Organ Weights: Kidney: 103 % saline control
  Organ Weights: Liver: 109 % saline control
  Organ Weights: Spleen: 120 % saline control
  Organ Weights: WAT: 97 % saline control
[3]; 50 mg/kg single i.p.
  Organ Weights: Kidney: 104 % saline control
  Organ Weights: Liver: 112 % saline control
  Organ Weights: Spleen: 130 % saline control
  Organ Weights: WAT: 77 % saline control
[4]; [7]
  Cholesterol (CHOL) Pre-Bleed: 85
  Triglyceride (TRIG) Pre-Bleed: 86
[4]; [8]
  Cholesterol (CHOL) Post-Bleed: 90
  Triglyceride (TRIG) Post-Bleed: 162
[4]; [9]
  Cholesterol (CHOL) Pre-Bleed: 82
  Triglyceride (TRIG) Pre-Bleed: 100
[4]; [10]
  Cholesterol (CHOL) Post-Bleed: 76
  Triglyceride (TRIG) Post-Bleed: 148
[4]; [11]
  Cholesterol (CHOL) Pre-Bleed: 87
  Triglyceride (TRIG) Pre-Bleed: 100
[4]; [12]
  Cholesterol (CHOL) Post-Bleed: 72
  Triglyceride (TRIG) Post-Bleed: 187
[4]; [13]
  Cholesterol (CHOL) Pre-Bleed: 79
  Triglyceride (TRIG) Pre-Bleed: 87
[4]; [14]
  Cholesterol (CHOL) Post-Bleed: 57
  Triglyceride (TRIG) Post-Bleed: 163

## 379696 (e[5mC]*dA*dG*d[5mC]*dT*dT*d[5mC]*dA*dG*dG*dT*eA; antisense) [compound 379696]
[6]; [15]
  % change in SGLT2 mRNA vs saline: −24.6 % Saline
[6]; [16]
  % change in SGLT2 mRNA vs saline: −36.2 % Saline

## 379686 (antisense eA*d[5mC]*d[5mC]*dA*d[5mC]*dA*dA*dG*d[5mC]*d[5mC]*dA*eA) [compound 379686]
[6]; [15]
  % change in SGLT2 mRNA vs saline: −71.9 % Saline
[6]; [16]
  % change in SGLT2 mRNA vs saline: −75.1 % Saline
